Tests used:
USP1 = molecular target: T1, USP1 (Homo sapiens, UniProt O94782); assay: Ub-VS labelling gel shift in K562 cell lysate, anti-USP1 western blot (FIG. 4); type: biochemical; details: dose dependent
T1 construct: endogenous in cells; host or cells: K562 human leukemia cells (lysate)
Description: (§1) Human leukemia cells (K652 cell line) express USP8, USP1, and other DUBs. In this experiment, K562 cells were lysed, and total cellular proteins were incubated with the affinity reagent, Ub-VS (vinyl sulfone) which covalently binds to active USPs. As indicated, the addition of Ub-VS causes an upward gel shift of active USP8 and active USP1 (lane 2). […] A western blot is shown, immunoblotted with either anti-USP8, anti-USP1, or anti-HA.
as §1, with “anti-HA antibodies.” for “anti-HA.”

USP8 = molecular target: T2, USP8 (Homo sapiens, UniProt P40818); assay: Ub-VS labelling gel shift in K562 cell lysate, anti-USP8 western blot (FIG. 4); type: biochemical; details: dose dependent
T2 construct: endogenous in cells; host or cells: K562 human leukemia cells (lysate)
T2 sequence (P40818 1-1118): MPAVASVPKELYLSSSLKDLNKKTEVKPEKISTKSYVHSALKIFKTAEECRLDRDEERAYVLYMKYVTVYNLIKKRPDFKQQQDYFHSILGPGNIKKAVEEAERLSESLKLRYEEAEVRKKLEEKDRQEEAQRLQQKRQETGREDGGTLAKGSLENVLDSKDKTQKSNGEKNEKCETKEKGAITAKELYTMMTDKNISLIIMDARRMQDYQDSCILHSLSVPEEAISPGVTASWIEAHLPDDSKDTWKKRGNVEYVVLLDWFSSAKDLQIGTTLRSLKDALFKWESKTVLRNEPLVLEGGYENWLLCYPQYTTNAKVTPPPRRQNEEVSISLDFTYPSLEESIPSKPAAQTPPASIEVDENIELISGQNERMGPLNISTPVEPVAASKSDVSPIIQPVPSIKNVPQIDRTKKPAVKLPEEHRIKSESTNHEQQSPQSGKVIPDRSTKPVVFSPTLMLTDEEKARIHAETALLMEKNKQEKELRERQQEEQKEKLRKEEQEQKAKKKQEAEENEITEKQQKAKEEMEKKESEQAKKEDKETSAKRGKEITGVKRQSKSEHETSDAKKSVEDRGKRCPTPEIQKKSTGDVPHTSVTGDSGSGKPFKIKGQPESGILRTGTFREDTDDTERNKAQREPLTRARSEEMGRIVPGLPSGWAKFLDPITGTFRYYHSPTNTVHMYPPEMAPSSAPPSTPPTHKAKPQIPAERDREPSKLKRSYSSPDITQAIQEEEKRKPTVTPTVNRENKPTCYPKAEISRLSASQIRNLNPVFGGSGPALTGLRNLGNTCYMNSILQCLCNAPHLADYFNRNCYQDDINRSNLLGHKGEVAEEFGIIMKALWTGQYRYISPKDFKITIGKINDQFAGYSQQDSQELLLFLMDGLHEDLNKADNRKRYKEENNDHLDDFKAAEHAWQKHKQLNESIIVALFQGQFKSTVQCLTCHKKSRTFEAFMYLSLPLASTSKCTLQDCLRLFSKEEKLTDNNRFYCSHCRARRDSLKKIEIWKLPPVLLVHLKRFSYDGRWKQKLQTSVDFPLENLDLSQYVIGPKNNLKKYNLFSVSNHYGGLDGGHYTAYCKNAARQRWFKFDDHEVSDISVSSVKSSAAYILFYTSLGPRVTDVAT
Description: as §1
as §1, with “anti-HA antibodies.” for “anti-HA.”

AR = AR degradation immunoblot in prostate cancer cell line (FIG. 9); type: cell-based, human; details: 24 h
Description: (§2) Specifically, a human prostate cancer cell line was exposed to the indicated concentrations of PAN-DUB inhibitor, 019A, for 24 hours. Thereafter, cells were lysed, and total cellular proteins were electrophoresed and immunoblotted. Proteins were probed with anti-USP12, anti-AR, and anti-Tubulin antibodies. […] Specifically, a human prostate cancer cell line was exposed to the indicated concentrations of PAN-DUB inhibitor, 019A, for 24 hours. Thereafter, cells were lysed, and total cellular proteins were electrophoresed and immunoblotted. Proteins were probed with anti-USP12, anti-AR, and anti-Tubulin antibodies. Conclusion: the PAN-DUB inhibitor promotes the dose-dependent degradation of AR, consistent with the dose-dependent killing of the cells by the drug. The dose of the inhibitor that reduce the viability of the prostate cancer cells (about 0.5 to 0.8 μm, see FIG. 5 and FIG. 7) correlates with the amount of drug required to degrade AR (about 0.6 to 0.8 μm).

USP12 = molecular target: T3, USP12 (Homo sapiens, UniProt O75317); assay: USP12 protein immunoblot in prostate cancer cell line (FIG. 9); type: cell-based; details: 24 h
T3 construct: cells were lysed, and total cellular proteins were electrophoresed and immunoblotted; endogenous in cells
Description: as §2

EGFR = EGFR degradation immunoblot in NSCLC line H1650 (FIG. 3); type: cell-based, human; details: H1650 cells, 24 h
Description: Specifically, the NSCLC line H1650, which is driven by a constitutively-activated EGFR, was treated with the indicated concentrations of the PAN-DUB inhibitor SJB-019A and/or the kinase inhibitor Gefitinib. After 24 hours, cells were lysed and the total cellular proteins were electrophoresed by standard PAGE methods. Proteins were immunoblotted and probed with commercially available polyclonal antisera to EGFR or Tubulin. […] Specifically, the NSCLC line H1650, which is driven by a constitutively-activated EGFR, was treated with the indicated concentrations of the PAN-DUB inhibitor SJB-019A and/or the kinase inhibitor Gefitinib. After 24 hours, cells were lysed and the total cellular proteins were electrophoresed by standard PAGE methods. Proteins were immunoblotted and probed with commercially available polyclonal antisera to EGFR or Tubulin. Conclusion: the PAN-DUB inhibitor promotes the degradation of the EGFR, at least in part, by inhibition of USP8 which is expressed in these cells. The dose of the inhibitor that reduce the viability of the NSCLC (less than 0.5 μm, see FIG. 2) correlates with the amount of drug required to degrade EGFR (between 0.2-0.5 μm).

[1] = Pharmacokinetics of 019A in mice (FIG. 1); type: in vivo; details: IV, IP, or oral (PO) administration
Cyclin D1 = Cyclin D1 degradation immunoblot in prostate cancer cell line (FIG. 6, FIG. 8); type: cell-based, human; details: 24 h
Description: (§3) Specifically, a human prostate cancer cell line was exposed to the indicated concentrations of PAN-DUB inhibitor, 019A, for 24 hours. Thereafter, cells were lysed, and total cellular proteins were electrophoresed and immunoblotted. Proteins were probed with anti-USP2, anti-Cyclin D1, and anti-vinculin. […] Specifically, a human prostate cancer cell line was exposed to the indicated concentrations of PAN-DUB inhibitor, 019A, for 24 hours. Thereafter, cells were lysed, and total cellular proteins were electrophoresed and immunoblotted. Proteins were probed with anti-USP2, anti-Cyclin D1, and anti-tubulin. […] Specifically, a human prostate cancer cell line was exposed to the indicated concentrations of PAN-DUB inhibitor, 019A, for 24 hours. Thereafter, cells were lysed, and total cellular proteins were electrophoresed and immunoblotted. Proteins were probed with anti-USP2, anti-Cyclin D1, and anti-Tubulin antibodies or anti-vinculin antibodies. Conclusion: the PAN-DUB inhibitor promotes the dose-dependent degradation of Cyclin D1, consistent with the dose-dependent killing of the cells by the drug. The dose of the inhibitor that reduce the viability of the prostate cancer cells (about 0.5 to 0.8 μm, see FIG. 5 and FIG. 7) correlates with the amount of drug required to degrade cyclin D1 (about 0.5 to 0.8 μm).

[2] = test system: human non-small cell lung cancer (NSCLC) lines; assay: NSCLC cell line viability after 24 h incubation (FIG. 2); type: cell-based
Description: The indicated human non-small cell lung cancer (NSCLC) lines were incubated with the indicated concentrations of the DUB inhibitor (019A) for twenty-four hours, and cell viability was measured. […] The indicated human non-small cell lung cancer (NSCLC) lines were incubated with the indicated concentrations of the DUB inhibitor (019A) for twenty-four hours, and cell viability was measured. […] Specifically, the NSCLC line H1650, which is driven by a constitutively-activated EGFR, was treated with the indicated concentrations of the PAN-DUB inhibitor SJB-019A and/or the kinase inhibitor Gefitinib. After 24 hours, cells were lysed and the total cellular proteins were electrophoresed by standard PAGE methods. Proteins were immunoblotted and probed with commercially available polyclonal antisera to EGFR or Tubulin. Conclusion: the PAN-DUB inhibitor promotes the degradation of the EGFR, at least in part, by inhibition of USP8 which is expressed in these cells. The dose of the inhibitor that reduce the viability of the NSCLC (less than 0.5 μm, see FIG. 2) correlates with the amount of drug required to degrade EGFR (between 0.2-0.5 μm).

[3] = test system: human prostate cancer cell line; assay: Prostate cancer cell viability after 24 h incubation (FIG. 5, FIG. 7); type: cell-based
Description: A human prostate cancer cell line was incubated with the indicated concentration of DUB inhibitor for 24 hours, and viability was then measured. […] A human prostate cancer cell line was incubated with the indicated concentration of DUB inhibitor for 24 hours, and viability was then measured. […] A human prostate cancer cell line was incubated with the indicated concentration of DUB inhibitor for 24 hours, and viability was then measured.

USP2a = molecular target: T4, USP2a (Homo sapiens, UniProt O75604); assay: USP2a expression immunoblot in prostate cancer cell line (FIG. 6, FIG. 8); type: cell-based; details: 24 h
T4 construct: endogenous in cells
T4 sequence (O75604 1-605): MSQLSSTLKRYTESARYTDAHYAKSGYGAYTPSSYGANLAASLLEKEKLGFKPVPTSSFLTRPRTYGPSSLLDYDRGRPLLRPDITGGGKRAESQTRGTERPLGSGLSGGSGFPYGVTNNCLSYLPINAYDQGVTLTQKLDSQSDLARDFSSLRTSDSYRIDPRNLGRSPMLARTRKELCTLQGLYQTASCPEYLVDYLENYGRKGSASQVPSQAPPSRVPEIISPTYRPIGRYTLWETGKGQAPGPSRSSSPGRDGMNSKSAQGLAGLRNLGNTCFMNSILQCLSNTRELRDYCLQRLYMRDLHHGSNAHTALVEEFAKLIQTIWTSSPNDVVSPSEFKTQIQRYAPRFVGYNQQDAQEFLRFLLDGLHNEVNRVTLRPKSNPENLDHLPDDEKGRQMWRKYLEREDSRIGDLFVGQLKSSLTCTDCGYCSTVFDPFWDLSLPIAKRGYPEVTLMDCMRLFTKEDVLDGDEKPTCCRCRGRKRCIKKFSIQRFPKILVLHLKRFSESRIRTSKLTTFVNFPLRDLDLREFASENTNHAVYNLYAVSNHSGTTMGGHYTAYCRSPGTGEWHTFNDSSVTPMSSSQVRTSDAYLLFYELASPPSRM
Description: as §3

T3 sequence (O75317 whole entry): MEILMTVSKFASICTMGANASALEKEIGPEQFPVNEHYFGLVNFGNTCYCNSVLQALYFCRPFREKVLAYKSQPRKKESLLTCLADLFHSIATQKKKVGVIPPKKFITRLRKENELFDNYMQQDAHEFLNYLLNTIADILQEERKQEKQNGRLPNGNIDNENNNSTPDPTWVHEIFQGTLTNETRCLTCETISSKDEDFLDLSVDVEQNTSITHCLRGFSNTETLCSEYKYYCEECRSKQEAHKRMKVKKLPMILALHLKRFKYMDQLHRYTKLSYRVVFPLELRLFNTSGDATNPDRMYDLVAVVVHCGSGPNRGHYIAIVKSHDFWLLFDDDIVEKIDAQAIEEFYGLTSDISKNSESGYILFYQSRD
T3 sequence (Q8TAF3 whole entry partner): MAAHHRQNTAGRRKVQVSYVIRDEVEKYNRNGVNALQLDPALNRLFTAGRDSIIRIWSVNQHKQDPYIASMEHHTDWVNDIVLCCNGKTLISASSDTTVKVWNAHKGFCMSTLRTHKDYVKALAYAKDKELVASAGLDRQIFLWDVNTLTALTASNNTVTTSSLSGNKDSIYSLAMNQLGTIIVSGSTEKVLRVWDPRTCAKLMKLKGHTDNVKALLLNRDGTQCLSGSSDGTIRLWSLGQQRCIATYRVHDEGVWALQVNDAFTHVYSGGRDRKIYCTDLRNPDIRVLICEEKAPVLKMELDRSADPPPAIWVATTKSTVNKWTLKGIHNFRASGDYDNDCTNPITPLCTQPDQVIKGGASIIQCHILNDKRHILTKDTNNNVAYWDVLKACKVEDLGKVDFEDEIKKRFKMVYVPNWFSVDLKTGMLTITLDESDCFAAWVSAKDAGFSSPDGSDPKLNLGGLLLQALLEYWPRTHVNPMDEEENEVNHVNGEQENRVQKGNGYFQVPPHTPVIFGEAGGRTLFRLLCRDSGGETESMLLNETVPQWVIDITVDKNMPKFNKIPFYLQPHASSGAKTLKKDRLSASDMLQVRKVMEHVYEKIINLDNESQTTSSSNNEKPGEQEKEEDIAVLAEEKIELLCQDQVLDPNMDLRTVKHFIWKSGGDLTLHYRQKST
T3 sequence (Q8TBZ3 whole entry partner): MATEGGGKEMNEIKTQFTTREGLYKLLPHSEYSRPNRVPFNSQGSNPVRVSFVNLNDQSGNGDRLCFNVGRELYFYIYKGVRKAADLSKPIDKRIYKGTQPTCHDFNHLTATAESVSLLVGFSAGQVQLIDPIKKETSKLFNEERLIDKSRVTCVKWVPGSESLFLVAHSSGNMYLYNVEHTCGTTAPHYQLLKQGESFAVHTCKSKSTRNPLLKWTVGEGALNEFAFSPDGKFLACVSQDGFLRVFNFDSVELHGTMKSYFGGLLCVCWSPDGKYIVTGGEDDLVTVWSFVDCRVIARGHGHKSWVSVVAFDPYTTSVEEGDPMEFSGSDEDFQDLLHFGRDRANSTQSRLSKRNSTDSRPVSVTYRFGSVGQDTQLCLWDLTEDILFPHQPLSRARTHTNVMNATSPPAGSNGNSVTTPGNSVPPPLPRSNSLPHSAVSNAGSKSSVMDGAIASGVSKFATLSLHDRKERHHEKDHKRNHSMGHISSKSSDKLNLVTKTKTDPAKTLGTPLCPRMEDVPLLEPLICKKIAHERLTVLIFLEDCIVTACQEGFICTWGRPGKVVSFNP
T1 sequence (O94782 whole entry): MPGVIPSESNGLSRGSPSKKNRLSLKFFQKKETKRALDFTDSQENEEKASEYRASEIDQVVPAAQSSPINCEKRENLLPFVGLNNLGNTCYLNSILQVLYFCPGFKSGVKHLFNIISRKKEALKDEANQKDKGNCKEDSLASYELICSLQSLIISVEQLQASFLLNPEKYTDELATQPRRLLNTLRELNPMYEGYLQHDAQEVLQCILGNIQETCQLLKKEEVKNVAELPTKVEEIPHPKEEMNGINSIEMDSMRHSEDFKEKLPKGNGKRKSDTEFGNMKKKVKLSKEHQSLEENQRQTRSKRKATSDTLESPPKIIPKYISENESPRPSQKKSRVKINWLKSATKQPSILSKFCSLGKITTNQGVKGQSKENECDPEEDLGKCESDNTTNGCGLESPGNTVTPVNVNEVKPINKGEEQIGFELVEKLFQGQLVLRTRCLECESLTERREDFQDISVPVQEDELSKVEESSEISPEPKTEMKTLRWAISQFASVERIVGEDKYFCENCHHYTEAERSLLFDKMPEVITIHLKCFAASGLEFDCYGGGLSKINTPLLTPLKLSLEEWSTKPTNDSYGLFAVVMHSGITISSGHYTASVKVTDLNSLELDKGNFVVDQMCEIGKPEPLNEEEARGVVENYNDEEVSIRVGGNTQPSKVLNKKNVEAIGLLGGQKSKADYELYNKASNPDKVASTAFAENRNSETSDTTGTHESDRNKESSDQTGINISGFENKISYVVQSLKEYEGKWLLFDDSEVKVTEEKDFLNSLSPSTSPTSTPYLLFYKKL
T1 sequence (Q8TAF3 whole entry partner): as the sequence (Q8TAF3 whole entry partner) above

inhibition of Ub-VS binding to active USP1 (USP1)	inhibition of Ub-VS binding to active USP8 (USP8)	effect on USP12 protein (USP12)	effect on USP2a expression (USP2a)	Compound	amount of drug required to degrade AR (AR)	amount of drug required to degrade EGFR (EGFR)	serum concentrations after administration [1]	amount of drug required to degrade cyclin D1 (Cyclin D1)	dose of the inhibitor that reduces the viability of the NSCLC ([2]; 24 h incubation)	selective killing (cytotoxicity) of lung cancer cell lines ([2]; cell lines which express activated EGF-receptor, 24 h)	dose of the inhibitor that reduces the viability of the prostate cancer cells [3]	drug concentration range for killing of prostate cancer cells [3]
blocks the upward shift	blocks the upward shift			Ub-aldehyde								
		degrades USP12 protein	does not affect USP2a expression	O=C1c2ccccc2C(=O)c2oc(-c3cccnc3)nc21 [019A]	0.6 to 0.8 μm	0.2-0.5 μm	inhibitory serum concentrations of 019A can be achieved	0.5 to 0.8 μm	less than 0.5 μm	selective killing (cytotoxicity) for lung cancer cell lines which express activated EGF-receptor	0.5 to 0.8 μm	submicromolar range

— patent publication US10450281B1, “Compounds and methods for treating cancer” (Dana-Farber Cancer Institute, Inc., priority 2014, dated 2019)
